Patent US6642222B2, “Pyrano, piperidino, and thiopyrano compounds and methods of use” (Abbott Laboratories, priority 1998, dated 2003)
Where a name gives a salt, the structure may show the parent alone.

Tests used:
Landrace Pig Bladder = test: Functional potassium channel opening activity in isolated bladder strips (field-stimulated twitch); conditions: for Index: ED50 for P1075 divided by ED50 for the test agonist, averaged over tissues; for Emax / EC50: Sus scrofa; for EC50: read-out: pD2 (converted)
Protocol: Compounds were evaluated for functional potassium channel opening activity using tissue strips obtained from Landrace pig bladders. Landrace pig bladders were obtained from female Landrace pigs of 9-30 kg. Landrace pigs were euthanized with an intraperitoneal injection of pentobarbital solution, Somlethal®, J. A. Webster Inc. Sterling Mass. The entire bladder was removed and immediately placed into Krebs Ringer bicarbonate solution (composition, mM: NaCl, 120; […] Dextrose, 4.7; […] Propranolol (0.004 mM) was included in all of the assays to block β-adrenoceptors. The trigonal and dome portions were […], Strips 3-5 […] (mm) wide and 20 mm long were prepared from the remaining tissue cut in a circular fashion. The mucosal layer was removed. One end was fixed to a stationary glass rod and the other to a Grass FT03 transducer at a basal preload of 1.0 g. Two parallel platinum electrodes were included in the stationary glass trod to provide field stimulation of 0.05 Hz, 0.5 milli-seconds at 20 volts. […] Tissues were allowed to equilibrate for at least 60 minutes and primed with 80 mM KCl. A control concentration response curve (cumulative) was generated for each tissue using the potassium channel opener […] as the control agonist. […] After a 60 minute rinsing period, a concentration response curve (cumulative) was generated for the test agonist in the same fashion as that used for the control agonist […]. The maximal efficacy of each compounds (expressed as % relative to […]) is reported. The amount of agent necessary to cause 50% of the agent's maximal response (ED50) was calculated using “ALLFIT” (DeLean et al., Am. J. […] Agonist potencies were also expressed as an index relative to […]. The index was calculated by dividing the ED50 for […] by the ED50 for the test agonist in a given tissue. Each tissue was used for only one test agonist, and the indices obtained from each tissue were averaged to provide an average index of potency.

[1] = system: Guinea-Pig Bladder (GPB) Cells; test: Membrane Hyperpolarization (MHP) assay, DiBAC(4)3 / FLIPR; conditions: for EC50: membrane hyperpolarization, GPB cells; for Emax: read-out: Maximal Response (% P1075), maximal steady-state hyperpolarization, normalized to 10 μM P1075 (100%); for Maximal Response (% P1075): maximal steady-state hyperpolarization, normalized to 10 μM P1075 (100%)
Protocol: Compounds were evaluated for potassium channel opening activity using primary cultured guinea-pig urinary bladder (GPB) cells.
For the preparation of urinary bladder smooth muscle cells, urinary bladders were removed from male guinea-pigs (Hartley, Charles River, Wilmington, Mass.) weighing 300-400 grams (g) and placed in ice-cold Ca^2+-free Krebs solution (Composition, millimolar (mM): KCl, 2.7; KH2PO4, 1.5; NaCl, 75; Na2HPO4, 9.6; Na2HPO4.7H2O, 8; MgSO4, 2; glucose, 5; HEPES, 10; pH 7.4). Cells were isolated by enzymatic dissociation (Klockner, U. and Isenberg, G., Pflugers Arch. (1985), 405, 329-339). The bladder was cut into small sections and incubated in 5 milliliters (mL) of the Kreb's solution containing 1 milligram per milliliter (mg/mL) of collagenase (Sigma, St. Louis, Mo.) and 0.2 mg/mL of pronase (Calbiochem, La Jolla, Calif.) with continuous stirring in a cell incubator for 30 minutes. The mixture was then centrifuged at 1300× g for 5 minutes, and the pellet resuspended in Dulbecco's phosphate buffered saline (PBS) (GIBCO, Gaithersburg, Md.) and recentrifuged to remove residual enzyme. The cell pellet was resuspended in 5 mL growth media (composition: Dulbecco's modified Eagle's medium supplemented with 10% fetal bovine serum, 100 units/mL penicillin, 100 units/mL streptomycin and 0.25 mg/mL amphotericin B) and further dissociated by pipetting the suspension through a flame-polished Pasteur pipette and passing it through a polypropylene mesh membrane (Spectrum, Houston, Tex.). The cell density was adjusted to 100,000 cells/mL by resuspension in growth media. Cells were plated in clear-bottomed black 96-well plates (Packard) for membrane potential studies at a density of 20,000 cells/well and maintained in a cell incubator with 90% air: 10% CO2 until confluent. Cells were confirmed to be of smooth muscle type by cytoskeletal staining using a monoclonal mouse anti human-α-smooth muscle actin (Biomeda, Foster City, Calif.).
Functional activity at potassium channels was measured by evaluating changes in membrane potential using the bis-oxonol dye DiBAC(4)3 (Molecular Probes) in a 96-well cell-based kinetic assay system using a Fluorescent Imaging Plate Reader (FLIPR) (K. S. Schroeder et al., J. Biomed. Screen., v. 1 pp. 75-81 (1996)). DiBAC(4)3 is an anionic potentiometric probe which partitions between cells and extracellular solution in a membrane potential-dependent manner. With increasing membrane potential (for example, K^+ depolarization), the probe further partitions into the cell; this is measured as an increase in fluorescence due to dye interaction with intracellular lipids and proteins. Conversely, decreasing membrane potential (hyperpolarization by potassium channel openers) evokes a decrease in fluorescence.
Confluent guinea-pig urinary bladder cells cultured in black clear-bottomed 96-well plates were rinsed twice with 200 mL assay buffer (composition, mM: HEPES, 20; NaCl, 120; KCl, 2; CaCl2, 2; MgCl2, 1; glucose, 5; pH 7.4 at 25° C.) containing 5 μM DiBAC(4)3 and incubated with 180 mL of the buffer in a cell incubator for 30 minutes at 37° C. to ensure dye distribution across the membrane. After recording the baseline fluorescence for 5 minutes, the reference or test compounds, prepared at 10 times the concentration in the assay buffer, were added directly to the wells. Changes in fluorescence were monitored for an additional 25 minutes.
Routinely, five concentrations of P1075 or test compounds (log or half-log dilutions) were evaluated and the maximal steady-state hyperpolarization values (expressed as % relative to P1075) plotted as a function of concentration. The EC50 (concentration that elicites 50% of the maximal response for the test sample) values were calculated by non-linear regression analysis using a four parameter sigmoidal equation. The maximal micromolar EC50 response of each compound (expressed as % relative to P1075) is reported.

[2] = maximal efficacy relative to P1075, field stimulated bladder strips

Question: How did the Index (Landrace Pig Bladder) turn out when `O=C1COCC2=C1[C@@H](c1ccc(F)c(Br)c1)C1=C(COC1=O)N2` (single isomer, unassigned) [Example 42] was run?
Answer: 0.17

Question: What about the Emax (Landrace Pig Bladder; [2]) of the same compound?
Answer: 95%

Question: And the EC50 (Landrace Pig Bladder; negative logarithm of ED50)?
Answer: 631 nM

Question: What about the EC50 ([1]; Cavia porcellus) of the same compound?
Answer: 26 nM

Question: What about the Emax ([1]; Cavia porcellus) of the same compound?
Answer: 102%

Question: Which results are given for `O=C1COCC2=C1[C@H](c1ccc(F)c(Br)c1)C1=C(COC1=O)N2` (single isomer, unassigned) [Example 43]?
Answer: Index (Landrace Pig Bladder): 0.68; Emax (Landrace Pig Bladder; [2]): 88%; EC50 (Landrace Pig Bladder; negative logarithm of ED50): 200 nM; EC50 ([1]; Cavia porcellus): 11 nM; Emax ([1]; Cavia porcellus): 98%

Question: What does the source list for `O=C1COCC2=C1[C@H](c1ccc(F)c(I)c1)C1=C(COC1=O)N2` (single isomer, unassigned) [Example 78]?
Answer: Index (Landrace Pig Bladder): 0.79; Emax (Landrace Pig Bladder; [2]): 96%; EC50 (Landrace Pig Bladder; negative logarithm of ED50): 79.4 nM; EC50 ([1]; Cavia porcellus): 4.9 nM; Emax ([1]; Cavia porcellus): 97%

Question: Which results are given for `O=C1COCC2=C1[C@@H](c1ccc(F)c(I)c1)C1=C(COC1=O)N2` (single isomer, unassigned) [Example 79]?
Answer: Index (Landrace Pig Bladder): 0.40; Emax (Landrace Pig Bladder; [2]): 95%; EC50 (Landrace Pig Bladder; negative logarithm of ED50): 158 nM; EC50 ([1]; Cavia porcellus): 14 nM; Emax ([1]; Cavia porcellus): 90%

Question: For `Cc1ccc([C@H]2C3=C(COCC3=O)NC3=C2C(=O)OC3)cc1Br` (single isomer, unassigned) [Example 81], which Index (Landrace Pig Bladder) is on record?
Answer: 0.23

Question: What about the Emax (Landrace Pig Bladder; [2]) of the same compound?
Answer: 93%

Question: What about the EC50 (Landrace Pig Bladder; negative logarithm of ED50) of the same compound?
Answer: 398 nM

Question: With `Cc1ccc(C2C3=C(COCC3=O)NC3=C2C(=O)OC3)cc1I` (single isomer, unassigned) [Example 82, 9-(3-iodo-4-methylphenyl)-5,9-dihydro-3H-furo [3,4-b]pyrano[4,3-e]pyridine-1,8(4H,7H)-dione] as the compound, how does the Index (Landrace Pig Bladder) read?
Answer: 1.4

Question: And the Emax (Landrace Pig Bladder; [2])?
Answer: 98%

Question: And the EC50 (Landrace Pig Bladder; negative logarithm of ED50)?
Answer: 31.6 nM

Question: What does the source list for `Cl.O=C1CCC2=C1C(c1ccc(F)c(Br)c1)C1=C(CNCC1=O)N2` (single isomer, unassigned; (+)) [Example 6, (+)-5-(3-bromo-4-fluorophenyl)-2,3,5,7,8,9-hexahydro-1H-cyclopenta[b][1,7]naphthyridine-4,6-dione Hydrochloride]?
Answer: Index (Landrace Pig Bladder; Hydrochloride): 0.022; Emax (Landrace Pig Bladder; [2]): 100%; EC50 (Landrace Pig Bladder; negative logarithm of ED50): 3980 nM; EC50 ([1]; Cavia porcellus): 1000 nM; Emax ([1]; Cavia porcellus): 83%

Question: What does the source list for `Cl.O=C1CCCC2=C1C(c1ccc(F)c(Br)c1)C1=C(CNCC1=O)N2` (single isomer, unassigned; (+)) [Example 8, (+)-5-(3-bromo-4-fluorophenyl)-2,3,5,8,9,10-hexahydrobenzo[b][1,7]naphthyridine-4,6(1H, 7H)-dione Hydrochloride]?
Answer: Index (Landrace Pig Bladder; Hydrochloride): 0.023; Efficacy (% P1075) (Landrace Pig Bladder; maximal efficacy relative to P1075, field stimulated bladder strips, Hydrochloride): 90 % P1075; pD2 (Landrace Pig Bladder; negative logarithm of ED50, Hydrochloride): 5.2; Maximal Response (% P1075) ([1]; Hydrochloride): 33 % P1075; EC50 ([1]; Hydrochloride): 5000 nM

Question: How did the “Maximal Response (% P1075)” value [1] turn out when `N#Cc1cccc(C2C3=C(COCC3=O)NC3=C2S(=O)(=O)CC3)c1` (single isomer, unassigned; (-)) [Example 16, (−) 9-(3-cyanophenyl)-2,3,5,9-tetrahydro-4H-pyrano [3,4-b]thieno[2,3-e]pyridin-8(7H)-one 1,1-dioxide] was run?
Answer: 57 % P1075

Question: And the EC50 [1]?
Answer: 8800 nM

Question: `O=C1CNCC2=C1C(c1ccc(F)c(Br)c1)C1=C(CNCC1=O)N2` [Example 4, 5-(3-bromo-4-fluorophenyl)-2,3,5,8,9,10-hexahydropyrido [3,4-b][1,7]naphthyridine-4,6(1H,7H)-dione Dihydrochloride] was tested. Which Emax ([1]; Cavia porcellus) did it give?
Answer: 21%

Question: `N#Cc1cccc(C2C3=C(COCC3=O)NC3=C2S(=O)(=O)CC3)c1` (stereo not shown) [Example 14, 9-(3-cyanophenyl)-2,3,5,9-tetrahydro-4H-pyrano[3,4-b]thieno[2,3-e]pyridin-8(7H)-one 1,1-dioxide] was tested. Which “Maximal Response (% P1075)” value [1] did it give?
Answer: 99 % P1075

Question: What about the EC50 [1] of the same compound?
Answer: 400 nM

Question: For `O=C1COCC2=C1C(c1ccc(Cl)c([N+](=O)[O-])c1)C1=C(CCS1(=O)=O)N2` (stereo not shown) [Example 17, 9-(4-chloro-3-nitrophenyl)-2,3,5,9-tetrahydro-4H-pyrano[3,4-b]thieno[2,3-e]pyridin-8(7H)-one 1,1-dioxide], which Emax ([1]; Cavia porcellus) is on record?
Answer: 93%

Question: And the EC50 [1]?
Answer: 4.2 nM

Question: With `O=C1COCC2=C1C(c1ccc(F)c(Br)c1)C1=C(CCCS1(=O)=O)N2` (stereo not shown) [Example 21, 10-(3-bromo-4-fluorophenyl)-3,4,6,10-tetrahadro-2H,5H-pyrano[3,4-b]thioyrano[2,3-e]pyridin-9(8H)-one 1,1-dioxide] as the compound, how does the “Maximal Response (% P1075)” value [1] read?
Answer: 79 % P1075

Question: And the EC50 [1]?
Answer: 66 nM

Question: Which EC50 ([1]; Cavia porcellus) does the source give for `O=C1CCC2=C1C(c1ccc(F)c(Br)c1)C1=C(COCC1=O)N2` (stereo not shown) [Example 23, 5-(3-bromo-4-fluorophenyl)-5,7,8,9-tetrahydrocyclopenta [b]pyrano[4,3-e]pyridine-4,6(1H,3H)-dione] here?
Answer: 40 nM

Question: What about the Emax ([1]; Cavia porcellus) of the same compound?
Answer: 82%

Question: For `O=C1COCC2=C1C(c1ccc(F)c(Br)c1)C1=C(COC1=O)N2` (stereo not shown) [Example 25, 9-(3-bromo-4-fluorophenyl)-5,9-dihydro-3H-furo [3,4-b]pyrano[4,3-e]pyridine-1,8(4H,7H)-dione], which EC50 ([1]; Cavia porcellus) is on record?
Answer: 9.8 nM

Question: And the Emax ([1]; Cavia porcellus)?
Answer: 106%

Question: How did the EC50 ([1]; Cavia porcellus) turn out when `CN1CC2=C(C1=O)C(c1ccc(F)c(Br)c1)C1=C(COCC1=O)N2` (stereo not shown) [Example 26, 9-(3-bromo-4-fluorophenyl)-2-methyl-2,3,5,9-tetrahydropyrano[3,4-b]pyrrolo[3,4-e]pyridine-1,8(4H,7H)-dione] was run?
Answer: 13 nM

Question: And the Emax ([1]; Cavia porcellus)?
Answer: 90%

Question: How did the Emax ([1]; Cavia porcellus) turn out when `O=C1COCC2=C1C(c1ccc(F)c(Cl)c1)C1=C(CCNC1=O)N2` (stereo not shown) [Example 44, 10-(3-chloro-4-fluorophenyl)-3,4,6,10-tetrahydro-2H-pyrano [3,4-b][1,6]naphthyridine-1,9(5H,8H)-dione] was run?
Answer: 96%

Question: With `O=C1COCC2=C1C(c1ccc(Cl)c(Cl)c1)C1=C(CCNC1=O)N2` (stereo not shown) [Example 45, 10-(3,4-dichlorophenyl)-3,4,6,10-tetrahydro-2H-pyrano [3,4-b][1,6]naphthyridine-1,9(5H,8H)-dione] as the compound, how does the EC50 ([1]; Cavia porcellus) read?
Answer: 200 nM

Question: And the Emax ([1]; Cavia porcellus)?
Answer: 85%

Question: `O=C1COCC2=C1C(c1ccc(Cl)c(C(F)(F)F)c1)C1=C(CCNC1=O)N2` (stereo not shown) [Example 46, 10-[4-chloro-3-(trifluoromethyl)phenyl]-3,4,6,10-tetrahydro-2H-pyrano[3,4-b][1,6]naphthyridine-1,9(5H,8H)-dione] was tested. Which EC50 ([1]; Cavia porcellus) did it give?
Answer: 340 nM

Question: What about the Emax ([1]; Cavia porcellus) of the same compound?
Answer: 83%

Question: For `O=C1COCC2=C1C(c1ccc(Cl)c([N+](=O)[O-])c1)C1=C(CCNC1=O)N2` (stereo not shown) [Example 47, 10-(4-chloro-3-nitrophenyl)-3,4,6,10-tetrahydro-2H-pyrano[3,4-b][1,6]naphthyridine-1,9(5H,8H)-dione], which EC50 ([1]; Cavia porcellus) is on record?
Answer: 490 nM

Question: And the Emax ([1]; Cavia porcellus)?
Answer: 91%

Question: With `O=C1COCC2=C1C(c1ccc(Br)c(Br)c1)C1=C(CCNC1=O)N2` (stereo not shown) [Example 48, 10-(3,4-dibromophenyl)-3,4,6,10-tetrahydro-2H-pyrano[3,4-b][1,6]naphthyridine-1,9(5H,8H)-dione] as the compound, how does the EC50 ([1]; Cavia porcellus) read?
Answer: 84 nM

Question: What about the Emax ([1]; Cavia porcellus) of the same compound?
Answer: 91%

Question: `O=C1COCC2=C1C(c1csc([N+](=O)[O-])c1)C1=C(CCNC1=O)N2` (stereo not shown) [Example 49, 10-(5-nitro-3-thienyl)-3,4,6,10-tetrahydro-2H-pyrano [3,4-b][1,6]naphthyridine-1,9(5H,8H)-dione] was tested. Which EC50 ([1]; Cavia porcellus) did it give?
Answer: 2300 nM

Question: And the Emax ([1]; Cavia porcellus)?
Answer: 85%

Question: `O=C1CCC2=C1C(c1ccc(F)c(Br)c1)C1=C(CSCC1=O)N2` (stereo not shown) [Example 51, 5-(3-bromo-4-fluorophenol)-5,7,8,9-tetrahydrocyclopenta [b]thiopyrano[4,3-e]pyridine-4,6(1H,3H)-dione] was tested. Which “Maximal Response (% P1075)” value [1] did it give?
Answer: 88 % P1075

Question: What about the EC50 [1] of the same compound?
Answer: 120 nM

Question: For `O=C1COCC2=C1C(c1ccc(Cl)c(C(F)(F)F)c1)C1=C(COCC1=O)N2` [Example 56, 5-[4-chloro-3-(trifluoromethyl)phenyl]-5,10-dihydro-1H, 3H-dipyrano[3,4-b:4,3-e]pyridine-4,6(7H,9H)-dione], which “Maximal Response (% P1075)” value [1] is on record?
Answer: 96 % P1075

Question: And the EC50 [1]?
Answer: 15 nM

Question: What does the source list for `O=C1COCC2=C1C(c1ccc(Br)c(Cl)c1)C1=C(COCC1=O)N2` [Example 60, 5-(4-bromo-3-chlorophenyl)-5,10-dihydro-1H,3H-dipyrano[3,4-b:4,3-e]pyridine-4,6(7H,9H)-dione]?
Answer: Maximal Response (% P1075) [1]: 88 % P1075; EC50 [1]: 23 nM

Question: What does the source list for `O=C1COCC2=C1C(c1ccc(Cl)c(Br)c1)C1=C(COCC1=O)N2` [Example 61, 5-(3-bromo-4-chlorophenyl)-5,10-dihydro-1H,3H-dipyrano[3,4-b:4,3-e]pyridine-4,6(7H,9H)-dione]?
Answer: Maximal Response (% P1075) [1]: 97 % P1075; EC50 [1]: 6.3 nM

Question: Which “Maximal Response (% P1075)” value [1] does the source give for `O=C1COCC2=C1C(c1ccc(C(F)(F)F)c(I)c1)C1=C(COCC1=O)N2` [Example 62, 5-[3-iodo-4-(trifluoromethyl)phenyl]-5,10-dihydro-1H,3H-dipyrano[3,4-b:4,3-e]pyridine-4,6(7H,9H)-dione] here?
Answer: 77 % P1075

Question: What about the EC50 [1] of the same compound?
Answer: 58 nM

Question: For `CCC(C)(C)N=C(NC#N)Nc1cccnc1` [Example P1075, reference compound], which stimulated twitch (Landrace Pig Bladder; control agonist, 10^−9 to 10^−5 M, dose dependent) is on record?
Answer: completely eliminated the stimulated twitch
